# Active and inactive are the calls of the source. The rule behind the calls is not given here.
# Columns and labels:
# [1] = Apparent permeability across apical to basolateral side in wild-type dog MDCK cells by LC-MS analysis; format: ADME, cell-based, Canis lupus familiaris
# [2] = Reduction in C26:0/C16:0 LPC level in ABCD1 knock out mouse CNS at 4 mg/kg, po qd measured after 6 months of dosing by LC-MS/MS analysis; format: functional; parameters: scale not given: the % may be the effect or the level left; details: 4380 h
# Mus musculus [3] = assay: Reduction of C26:0 LPC level in ABCD1 knock out mouse blood at 1 to 16 mg/kg, po qd measured after 6 days of dosing by LC-MS/MS analysis; format: functional, organism-based; details: dose 1-16 mg/kg, time 6.0 day
# [4] = biological target: Rho-associated protein kinase 1 (Homo sapiens) (UniProt Q13464); assay: Inhibition of ROCK 1 (unknown origin) at 10 uM
# Sequence of Rho-associated protein kinase 1 (Homo sapiens) (Q13464 2-1354 limits assumed): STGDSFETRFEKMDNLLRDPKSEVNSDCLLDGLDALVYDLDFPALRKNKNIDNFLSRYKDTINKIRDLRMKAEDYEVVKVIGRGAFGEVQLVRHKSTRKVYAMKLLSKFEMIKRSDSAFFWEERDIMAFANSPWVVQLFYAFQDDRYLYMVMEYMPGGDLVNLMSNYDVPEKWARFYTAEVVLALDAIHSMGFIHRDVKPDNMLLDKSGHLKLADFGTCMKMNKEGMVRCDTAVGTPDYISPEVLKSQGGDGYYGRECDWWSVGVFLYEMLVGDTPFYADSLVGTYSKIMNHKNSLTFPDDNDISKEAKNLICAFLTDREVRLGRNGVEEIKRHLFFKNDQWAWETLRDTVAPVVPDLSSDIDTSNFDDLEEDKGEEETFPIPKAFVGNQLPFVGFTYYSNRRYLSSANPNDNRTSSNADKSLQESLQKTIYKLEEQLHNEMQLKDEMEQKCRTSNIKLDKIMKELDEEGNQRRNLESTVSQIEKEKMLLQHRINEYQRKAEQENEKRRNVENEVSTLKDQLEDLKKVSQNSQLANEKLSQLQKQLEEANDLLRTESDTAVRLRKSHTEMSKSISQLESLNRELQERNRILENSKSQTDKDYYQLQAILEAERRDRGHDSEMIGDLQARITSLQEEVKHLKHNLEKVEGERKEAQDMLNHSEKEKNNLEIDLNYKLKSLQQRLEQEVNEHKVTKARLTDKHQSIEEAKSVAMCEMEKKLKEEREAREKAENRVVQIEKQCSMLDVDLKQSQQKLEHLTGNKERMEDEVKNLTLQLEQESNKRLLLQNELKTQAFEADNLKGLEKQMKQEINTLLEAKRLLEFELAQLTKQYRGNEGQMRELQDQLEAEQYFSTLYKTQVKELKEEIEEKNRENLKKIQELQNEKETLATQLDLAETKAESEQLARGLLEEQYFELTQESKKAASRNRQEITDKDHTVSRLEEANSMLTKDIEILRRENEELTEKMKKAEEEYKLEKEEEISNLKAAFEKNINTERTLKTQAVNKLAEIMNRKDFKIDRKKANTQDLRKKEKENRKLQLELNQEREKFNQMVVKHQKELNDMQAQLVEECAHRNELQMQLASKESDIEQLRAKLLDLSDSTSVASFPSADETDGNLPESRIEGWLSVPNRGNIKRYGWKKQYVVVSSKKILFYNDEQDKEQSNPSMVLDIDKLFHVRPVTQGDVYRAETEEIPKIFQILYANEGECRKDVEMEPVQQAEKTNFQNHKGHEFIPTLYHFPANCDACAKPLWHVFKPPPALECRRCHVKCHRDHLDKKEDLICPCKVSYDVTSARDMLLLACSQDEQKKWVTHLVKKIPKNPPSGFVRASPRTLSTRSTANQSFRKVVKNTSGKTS
# [5] = Toxicity in Cynomolgus monkey assessed as skin lesions at 5 to 50 mg/kg/day, po administered for 14 days; format: organism-based, Macaca fascicularis; details: in vivo, 336 h, dose 5-50 mg/kg/day, time 14 day
# Mus musculus [6] = assay: Reduction in C26:0 LPC level in wild-type C57BL/6 mouse blood administered orally qd for 105 days by LC-MS/MS analysis; format: functional, tissue-based; details: route po, time 105.0 day, DDE = dose-dependent effect
# [7] = Reduction in C26:0 LPC level in Cynomolgus monkey plasma at 15 mg/kg, po qd for 13 weeks by LC-MS/MS analysis; format: functional, Macaca fascicularis; parameters: scale not given: the % may be the effect or the level left
# [8] = biological target: T1, Very long chain fatty acid elongase 1 (Homo sapiens, UniProt Q9BW60); assay: Inhibition of ELOVL1 in human microglia assessed as reduction of C26:0 VLCFA synthesis incubated for 48 hrs by cellular assay; format: cell-based
# T1 sequence (Q9BW60 whole entry): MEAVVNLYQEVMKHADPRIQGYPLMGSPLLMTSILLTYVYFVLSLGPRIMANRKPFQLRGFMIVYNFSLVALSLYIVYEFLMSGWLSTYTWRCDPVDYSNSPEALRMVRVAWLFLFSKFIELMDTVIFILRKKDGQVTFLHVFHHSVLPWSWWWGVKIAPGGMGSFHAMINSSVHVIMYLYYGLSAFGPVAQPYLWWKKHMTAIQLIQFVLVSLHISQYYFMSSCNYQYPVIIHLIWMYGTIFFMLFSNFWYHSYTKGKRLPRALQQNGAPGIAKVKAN
# [9] = Unbound brain-to-plasma concentration ratio in rat at 3 mg/kg, po measured after 120 mins; format: ADME, organism-based; details: brain and plasma, read-out: K(p,uu,brain)
# [10] = Toxicity in Sprague-Dawley rat assessed as corneal keratitis at 5 mg/kg/day, po administered for 8 weeks by macroscopic observation analysis; format: organism-based; details: in vivo, 1344 h
# [11] = Toxicity in Sprague-Dawley rat assessed as erosion of forestomach at 5 to 50 mg/kg/day, po administered for 2 to 8 weeks; format: organism-based; details: in vivo, dose lower 5 mg/kg/day, time lower 2 weeks, dose upper 50 mg/kg/day, time upper 8 weeks
# [12] = Toxicity in telemetry-implanted Cynomolgus monkey assessed as higher baseline beta EEG activity at 5 to 20 mg/kg/day,NG administered for 7 days; format: organism-based, Macaca fascicularis; details: in vivo, po, 168 h, dose 5-20 mg/kg/day, time 7 day
# [13] = Reduction in C26:0/C16:0 total VLFCA levels in ABCD1 knock out mouse CNS at 10 mg/kg, po qd measured after 2 months of dosing by LC-MS/MS analysis; format: functional; parameters: scale not given: the % may be the effect or the level left; details: 1460 h
# [14] = biological target: T2, Very long chain fatty acid elongase 1 (Homo sapiens) (UniProt Q9BW60); assay: Inhibition of ELOVL-1 in human HEK2936E cells assessed as reduction in C24:0 lysophosphatidyl choline synthesis at 100 nM in presence of 13C-labeled acetate measured after 48 hrs; format: cell-based
# T2 sequence (whole entry): T1 sequence (Q9BW60 whole entry)
# [15] = Toxicity in Sprague-Dawley rat assessed as ocular focal cellular disorganization at 5 mg/kg/day, po administered for 8 weeks by microscopic observation analysis; format: organism-based; details: in vivo, 1344 h
# [16] = Efflux ratio of permeability across […] in dog MDCK-MDR1 transfected cells by LC-MS analysis; format: ADME, cell-based, Canis lupus familiaris
# [17] = Cmax in Beagle dog at 3 mg/kg, po upto 24 hrs by LC/MS/MS analysis; format: ADME, organism-based, Canis lupus familiaris; parameters: dose 3 mg/kg, time < 24 hrs, route po; details: in vivo
# [18] = Reduction of C26:0 /C16:0 LPC level in ABCD1 KO mouse blood at 5 mg/kg, po qd for 8 months by LC-MS/MS analysis relative to control; format: functional; parameters: scale not given: the % may be the effect or the level left; details: 5840 h
# [19] = Toxicity in Cynomolgus monkey assessed as skin inflammatory infiltrates at 5 to 50 mg/kg/day, po administered for 14 days by microscopic observation analysis; format: organism-based, Macaca fascicularis; details: in vivo, 336 h, dose 5-50 mg/kg/day, time 14 day
# [20] = AUC (infinity) in Sprague-Dawley rat at 3 mg/kg, po upto 24 hrs by LC/MS/MS analysis; format: ADME, organism-based; parameters: dose 3 mg/kg, time < 24 hrs, route po; details: in vivo
# [21] = biological target: T2, Very long chain fatty acid elongase 1 (Homo sapiens); assay: Inhibition of ELOVL-1 in human HEK2936E cells assessed as reduction in C26:0 lysophosphatidyl choline synthesis at 100 nM in presence of 13C-labeled acetate measured after 48 hrs; format: cell-based
# [22] = Tmax in Cynomolgus monkey at 3 mg/kg, po upto 24 hrs by LC/MS/MS analysis; format: ADME, organism-based, Macaca fascicularis; details: in vivo
# Mus musculus [23] = assay: Reduction in C26:0/C16:0 LPC level in high fat diet fed ABCD1 knock out mouse blood at 1 to 8 mg/kg, po qd measured on day 28 after 7 days of treatment discontinuation by LC-MS/MS analysis; format: functional, organism-based; details: dose 1-8 mg/kg, time 28.0 day
# [24] = Toxicity in Sprague-Dawley rat assessed as decrease in body weight at 5 to 50 mg/kg/day, po administered for 2 weeks; format: organism-based; details: in vivo, 336 h, dose 5-50 mg/kg/day
# [25] = Increase in C20:0/C16:0 total VLCFA levels in ABCD1 knock out mouse CNS at 1 to 10 mg/kg, po qd measured after 3 months of dosing by LC-MS/MS analysis; format: functional; details: dose 1-10 mg/kg, 2190 h
# [26] = Cmax in Cynomolgus monkey at 3 mg/kg, po upto 24 hrs by LC/MS/MS analysis; format: ADME, organism-based, Macaca fascicularis; parameters: time < 24 hrs, dose 3 mg/kg, route po; details: in vivo
# [27] = Reduction in C26:0 LPC level in ABCD1 knock out mouse CNS at 4 mg/kg, po qd measured after 6 months of dosing by LC-MS/MS analysis; format: functional; parameters: scale not given: the % may be the effect or the level left; details: 4380 h
# Mus musculus [28] = assay: Reduction in C22:0/C16:0 LPC level in ABCD1 knock out mouse CNS at 1 to 10 mg/kg, po qd measured after 3 months of dosing by LC-MS/MS analysis; format: functional, organism-based; details: dose 1-10 mg/kg
# [29] = Toxicity in Cynomolgus monkey assessed as dry and red scaly areas on thorax at 5 to 50 mg/kg/day, po administered for 14 days by macroscopic observation analysis; format: organism-based, Macaca fascicularis; details: in vivo, 336 h, dose 5-50 mg/kg/day, time 14 day
# [30] = Toxicity in juvenile Sprague-Dawley rat assessed as stomach lesions at 5 to 75 mg/kg/day, po treatment started from postnatal day 18 to 114 days; format: organism-based; details: in vivo, dose lower 5 mg/kg/day, time lower 18 day, dose upper 75 mg/kg/day, time upper 114 day
# [31] = Tmax in Sprague-Dawley rat at 3 mg/kg, po upto 24 hrs by LC/MS/MS analysis; format: ADME, organism-based; details: in vivo
# [32] = Toxicity in Sprague-Dawley rat assessed as ocular hyperplasia at 5 mg/kg/day, po administered for 8 weeks by microscopic observation analysis; format: organism-based; details: in vivo, 1344 h
compound,measurement,setting,value
O=C(Nc1ccn(-c2ccnc(F)c2)n1)C1(c2ccccc2F)CC1,Papp A→B,[1],10.1 ×10⁻⁶ cm/s
same,Activity,[2],57%
same,Activity,Mus musculus [3],Active
same,inhibition,[4],> 50%
same,Activity,[5],Toxic
same,Activity,Mus musculus [6],Dde
same,Activity,[7],82%
same,IC50,[8],11 nM
same,Kp uu at 2 h,[9],1.1
same,Activity,[10],Toxic
same,Activity,[11],Toxic
same,Activity,[12],Toxic
same,Activity,[13],50%
same,inhibition,[14],Active
same,Activity,[15],Toxic
same,Ratio,[16],1.1
same,Cmax,[17],261 ng/mL
same,Activity,[18],60%
same,Activity,[19],Toxic
same,AUC,[20],442 ng·h/mL
same,inhibition,[21],Active
same,Tmax,[22],2.3 h
same,Activity,Mus musculus [23],Active
same,Activity,[24],Toxic
same,Activity,[25],<6%
same,Cmax,[26],404 ng/mL
same,Activity,[27],57%
same,Activity,Mus musculus [28],Active
same,Activity,[29],Toxic
same,Activity,[30],Toxic
same,Tmax,[31],0.4 h
same,Activity,[32],Toxic
